Assays:
Test in all cases: Enzymatic activity of PI3K isoforms, TR-FRET assay (PIP3 formation)
Assay type in all cases: biochemical
[1] = target: PI3Kδ (Homo sapiens (Human), UniProt O00329); details: bound given in nM
Procedure: (§1) Enzymatic activity of the class I PI3K isoforms was measured using a time-resolved fluorescence resonance energy transfer (TR-FRET) assay that monitors formation of the product 3,4,5-inositol triphosphate molecule (PIP3), as it competes with fluorescently labeled PIP3 for binding to the GRP-1 pleckstrin homology domain protein. An increase in […] product results in a decrease in TR-FRET signal as the labeled fluorophore is displaced from the GRP-1 protein binding site.
(§2) Class I PI3K isoforms were expressed and purified as heterodimeric recombinant proteins. All assay reagents and buffers for the TR-FRET assay were purchased from Millipore. […] After an assay reaction time of 30 minutes at 25° C., reactions were terminated with a final concentration of 10 mM EDTA, 10 nM labeled-PIP3, and 35 nM Europium labeled GRP-1 detector protein before reading TR-FRET on an Envision plate reader (Ex: 340 nm; Em: 615/665 nm; 100 μs delay and 500 μs read window).
(§3) IC50 are reported in units of nM. These assays generally produced results within 3-fold of the reported mean.

[2] = target: PI3Kβ (Homo sapiens (Human), UniProt P42338); details: bound given in nM
Procedure: as §1
(§4) Class I PI3K isoforms were expressed and purified as heterodimeric recombinant proteins. All assay reagents and buffers for the TR-FRET assay were purchased from Millipore.
(§5) IC50 are reported in units of nM.

[3] = target: PI3Kα (Homo sapiens (Human), UniProt P42336); details: bound given in uM
PI3Kα, sequence (P42336 whole entry): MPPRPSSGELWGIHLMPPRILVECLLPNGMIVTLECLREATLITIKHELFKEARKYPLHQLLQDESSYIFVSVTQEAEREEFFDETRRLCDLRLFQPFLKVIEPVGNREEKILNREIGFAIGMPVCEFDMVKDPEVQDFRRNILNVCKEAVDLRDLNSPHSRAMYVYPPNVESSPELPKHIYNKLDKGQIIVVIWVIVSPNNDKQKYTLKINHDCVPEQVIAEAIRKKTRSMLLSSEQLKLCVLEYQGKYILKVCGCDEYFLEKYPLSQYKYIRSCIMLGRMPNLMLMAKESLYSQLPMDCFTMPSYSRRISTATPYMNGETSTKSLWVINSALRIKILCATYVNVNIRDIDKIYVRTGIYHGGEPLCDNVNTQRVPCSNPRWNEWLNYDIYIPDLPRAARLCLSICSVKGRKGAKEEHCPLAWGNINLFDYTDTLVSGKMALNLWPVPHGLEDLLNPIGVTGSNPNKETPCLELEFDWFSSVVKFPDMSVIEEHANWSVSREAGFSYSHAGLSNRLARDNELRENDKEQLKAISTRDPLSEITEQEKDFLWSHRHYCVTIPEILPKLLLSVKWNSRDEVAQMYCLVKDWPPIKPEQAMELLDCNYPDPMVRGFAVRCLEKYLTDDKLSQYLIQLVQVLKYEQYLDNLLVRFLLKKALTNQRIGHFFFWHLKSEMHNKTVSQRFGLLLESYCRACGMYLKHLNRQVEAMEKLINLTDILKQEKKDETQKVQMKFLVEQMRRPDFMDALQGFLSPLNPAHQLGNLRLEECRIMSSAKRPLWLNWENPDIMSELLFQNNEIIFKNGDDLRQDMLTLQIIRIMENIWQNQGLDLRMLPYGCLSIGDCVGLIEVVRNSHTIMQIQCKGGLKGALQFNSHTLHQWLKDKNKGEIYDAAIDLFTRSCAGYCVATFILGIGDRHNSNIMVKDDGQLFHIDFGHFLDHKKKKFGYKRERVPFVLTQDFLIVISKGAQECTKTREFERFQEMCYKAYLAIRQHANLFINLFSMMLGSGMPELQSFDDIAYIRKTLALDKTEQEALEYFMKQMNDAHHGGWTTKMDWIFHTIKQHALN
PI3Kα, sequence (P27986 whole entry partner): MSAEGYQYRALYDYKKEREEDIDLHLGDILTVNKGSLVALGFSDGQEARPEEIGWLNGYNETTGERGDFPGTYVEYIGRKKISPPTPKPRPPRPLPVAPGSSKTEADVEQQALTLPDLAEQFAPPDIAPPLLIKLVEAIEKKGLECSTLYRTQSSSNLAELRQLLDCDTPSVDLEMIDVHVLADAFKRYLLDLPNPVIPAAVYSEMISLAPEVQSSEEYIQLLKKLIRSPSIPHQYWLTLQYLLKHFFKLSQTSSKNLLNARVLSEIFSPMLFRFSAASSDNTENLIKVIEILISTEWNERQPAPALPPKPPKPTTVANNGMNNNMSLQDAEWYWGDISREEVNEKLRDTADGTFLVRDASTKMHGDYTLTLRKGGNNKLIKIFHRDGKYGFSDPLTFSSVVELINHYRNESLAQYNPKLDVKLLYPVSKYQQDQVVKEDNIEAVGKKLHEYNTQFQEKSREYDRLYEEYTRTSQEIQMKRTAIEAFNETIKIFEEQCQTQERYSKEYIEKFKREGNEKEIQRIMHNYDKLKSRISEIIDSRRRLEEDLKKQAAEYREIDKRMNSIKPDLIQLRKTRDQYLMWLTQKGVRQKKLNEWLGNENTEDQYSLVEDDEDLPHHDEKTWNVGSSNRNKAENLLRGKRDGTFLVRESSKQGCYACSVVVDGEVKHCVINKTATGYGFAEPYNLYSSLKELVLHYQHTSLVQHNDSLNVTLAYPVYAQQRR
Procedure: as §1, §2, §3

[4] = target: PI3Kγ (Homo sapiens (Human), UniProt P48736)
PI3Kγ, sequence (P48736 whole entry): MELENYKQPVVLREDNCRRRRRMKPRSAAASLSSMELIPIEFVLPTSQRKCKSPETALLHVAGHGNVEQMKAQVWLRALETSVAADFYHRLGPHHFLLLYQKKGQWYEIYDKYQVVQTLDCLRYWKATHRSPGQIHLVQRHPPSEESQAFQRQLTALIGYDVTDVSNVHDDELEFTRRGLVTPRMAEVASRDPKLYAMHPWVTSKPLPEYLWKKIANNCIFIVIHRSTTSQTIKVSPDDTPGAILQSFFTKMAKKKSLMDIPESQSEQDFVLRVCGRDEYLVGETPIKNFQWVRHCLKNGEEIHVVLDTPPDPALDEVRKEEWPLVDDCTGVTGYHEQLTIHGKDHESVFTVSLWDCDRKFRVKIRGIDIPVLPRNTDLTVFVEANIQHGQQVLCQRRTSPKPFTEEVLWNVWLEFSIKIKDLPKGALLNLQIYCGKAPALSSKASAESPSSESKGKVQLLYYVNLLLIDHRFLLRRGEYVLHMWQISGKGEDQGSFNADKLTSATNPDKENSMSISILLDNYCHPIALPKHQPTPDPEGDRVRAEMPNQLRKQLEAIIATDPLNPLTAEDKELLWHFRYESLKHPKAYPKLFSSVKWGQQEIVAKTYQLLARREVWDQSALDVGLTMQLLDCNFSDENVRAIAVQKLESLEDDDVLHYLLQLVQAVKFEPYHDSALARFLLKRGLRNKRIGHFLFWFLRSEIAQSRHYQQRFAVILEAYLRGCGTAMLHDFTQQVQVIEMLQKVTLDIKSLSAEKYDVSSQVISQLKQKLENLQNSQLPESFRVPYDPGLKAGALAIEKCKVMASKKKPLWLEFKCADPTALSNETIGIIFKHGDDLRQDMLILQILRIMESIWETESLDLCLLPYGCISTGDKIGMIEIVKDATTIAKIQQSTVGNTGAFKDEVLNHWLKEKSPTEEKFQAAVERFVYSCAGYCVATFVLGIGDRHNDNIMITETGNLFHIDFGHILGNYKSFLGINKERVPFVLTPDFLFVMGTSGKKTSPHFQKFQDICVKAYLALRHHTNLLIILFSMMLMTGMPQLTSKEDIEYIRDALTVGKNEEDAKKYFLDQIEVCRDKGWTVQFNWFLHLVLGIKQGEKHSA
PI3Kγ, sequence (Q8WYR1 whole entry partner): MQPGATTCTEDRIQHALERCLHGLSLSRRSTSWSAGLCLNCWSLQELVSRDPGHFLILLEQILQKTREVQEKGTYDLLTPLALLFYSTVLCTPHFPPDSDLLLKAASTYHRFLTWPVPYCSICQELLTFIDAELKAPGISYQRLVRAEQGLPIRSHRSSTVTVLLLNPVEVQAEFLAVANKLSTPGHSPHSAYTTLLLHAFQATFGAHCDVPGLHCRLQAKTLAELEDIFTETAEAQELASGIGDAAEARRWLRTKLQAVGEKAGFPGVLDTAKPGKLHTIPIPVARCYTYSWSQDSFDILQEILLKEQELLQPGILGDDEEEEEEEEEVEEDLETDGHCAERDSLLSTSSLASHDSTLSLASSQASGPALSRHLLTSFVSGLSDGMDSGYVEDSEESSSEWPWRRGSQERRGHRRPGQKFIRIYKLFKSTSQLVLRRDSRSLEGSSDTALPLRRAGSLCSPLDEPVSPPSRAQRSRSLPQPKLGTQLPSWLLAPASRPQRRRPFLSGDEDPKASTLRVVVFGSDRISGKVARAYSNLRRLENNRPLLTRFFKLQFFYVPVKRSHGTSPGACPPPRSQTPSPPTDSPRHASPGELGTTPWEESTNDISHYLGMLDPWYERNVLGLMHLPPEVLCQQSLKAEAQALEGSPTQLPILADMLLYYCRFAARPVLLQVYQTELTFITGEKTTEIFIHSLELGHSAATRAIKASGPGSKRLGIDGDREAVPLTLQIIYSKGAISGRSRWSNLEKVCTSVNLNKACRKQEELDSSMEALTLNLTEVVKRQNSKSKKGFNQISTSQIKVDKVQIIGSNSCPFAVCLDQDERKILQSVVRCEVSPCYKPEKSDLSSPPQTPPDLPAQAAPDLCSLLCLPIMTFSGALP
Procedure: as §1, §4, §5

PI3Kδ, sequence (O00329 whole entry, the tested form may be a part, canonical isoform): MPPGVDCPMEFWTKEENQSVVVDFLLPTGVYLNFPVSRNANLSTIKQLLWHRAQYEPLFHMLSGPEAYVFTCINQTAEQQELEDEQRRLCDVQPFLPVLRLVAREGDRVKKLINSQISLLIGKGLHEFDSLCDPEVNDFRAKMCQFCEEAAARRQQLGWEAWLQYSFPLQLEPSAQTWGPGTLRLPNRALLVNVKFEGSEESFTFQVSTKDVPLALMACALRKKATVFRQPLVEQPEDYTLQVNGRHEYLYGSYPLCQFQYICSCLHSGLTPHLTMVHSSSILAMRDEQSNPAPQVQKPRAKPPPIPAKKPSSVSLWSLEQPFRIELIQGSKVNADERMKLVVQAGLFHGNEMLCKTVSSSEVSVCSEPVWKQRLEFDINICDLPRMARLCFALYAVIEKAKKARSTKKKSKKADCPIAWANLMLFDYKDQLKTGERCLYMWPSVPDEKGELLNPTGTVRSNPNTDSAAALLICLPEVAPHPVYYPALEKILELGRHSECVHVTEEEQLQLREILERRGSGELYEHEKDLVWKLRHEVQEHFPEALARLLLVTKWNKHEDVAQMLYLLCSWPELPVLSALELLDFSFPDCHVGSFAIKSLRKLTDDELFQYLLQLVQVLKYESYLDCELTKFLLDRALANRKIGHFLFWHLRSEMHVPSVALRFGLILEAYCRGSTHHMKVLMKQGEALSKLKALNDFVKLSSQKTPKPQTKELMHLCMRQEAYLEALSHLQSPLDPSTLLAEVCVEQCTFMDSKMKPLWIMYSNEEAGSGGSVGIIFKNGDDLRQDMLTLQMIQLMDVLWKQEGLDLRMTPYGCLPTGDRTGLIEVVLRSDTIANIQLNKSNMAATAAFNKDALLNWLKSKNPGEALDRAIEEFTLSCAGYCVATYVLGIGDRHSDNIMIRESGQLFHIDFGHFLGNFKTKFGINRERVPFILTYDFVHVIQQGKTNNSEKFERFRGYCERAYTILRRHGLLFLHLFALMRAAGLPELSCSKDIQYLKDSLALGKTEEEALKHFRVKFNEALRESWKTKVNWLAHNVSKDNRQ
PI3Kδ, sequence (P27986 whole entry partner, the tested form may be a part, canonical isoform): as the sequence (P27986 whole entry partner) above

Row | Structure (SMILES) | IC50 [1] | IC50 [2] | IC50 [3] | IC50 ([4]; bound given in uM) | IC50 ([4]; bound given in nM)
1 | C[C@H](Nc1ncnc(N)c1C#Cc1ccc(F)cn1)c1nc2cccc(Cl)c2c(=O)n1N1CCOCC1 [Compound 121a, (S)-2-(1-((6-amino-5-((5-fluoropyridin-2-yl)ethynyl)pyrimidin-4-yl)amino)ethyl)-5-chloro-3-morpholinoquinazolin-4(3H)-one] | < 100 nM |  | > 1 µM | > 1 µM | 
2 | C[C@H](Nc1ncnc(N)c1C#Cc1cnccn1)c1nc2cccc(Cl)c2c(=O)n1-c1cccnc1 [Compound 118a, (S)-2-(1-((6-amino-5-(pyrazin-2-ylethynyl)pyrimidin-4-yl)amino)ethyl)-5-chloro-3-(pyridin-3-yl)quinazolin-4(3H)-one] | < 100 nM |  | > 1 µM | > 1 µM | 
3 | C[C@H](Nc1ncnc(N)c1C#CC1CCCC1)c1nc2cccc(Cl)c2c(=O)n1-c1ccccc1 [Compound 144a, (S)-2-(1-((6-amino-5-(cyclopentylethynyl)pyrimidin-4-yl)amino)ethyl)-5-chloro-3-phenylquinazolin-4(3H)-one] | < 100 nM |  | > 1 µM | > 1 µM | 
4 | Cc1ccc(F)c2c(=O)n(-c3ccccc3)c([C@H](C)Nc3ncnc(N)c3C#Cc3ccc(F)cn3)nc12 [Compound 69a, (S)-2-(1-((6-amino-5-((5-fluoropyridin-2-yl)ethynyl)pyrimidin-4-yl)amino)ethyl)-5-fluoro-8-methyl-3-phenylquinazolin-4(3H)-one] | < 100 nM |  | > 1 µM | > 1 µM | 
5 | Cc1cccc2nc([C@H](C)Nc3ncnc(N)c3C#Cc3cnccn3)n(-c3cccc(F)c3)c(=O)c12 [Compound 106a, (S)-2-(1-((6-amino-5-(pyrazin-2-ylethynyl)pyrimidin-4-yl)amino)ethyl)-3-(3-fluorophenyl)-5-methylquinazolin-4(3H)-one] | < 100 nM |  | > 1 µM | > 1 µM | 
6 | C[C@H](Nc1ncnc(N)c1C#Cc1ccc(F)cn1)c1nc2c(F)ccc(F)c2c(=O)n1-c1ccccc1 [Compound 4a, (S)-2-(1-(6-amino-5-((5-fluoropyridin-2-yl)ethynyl)pyrimidin-4-ylamino)ethyl)-5,8-difluoro-3-phenylquinazolin-4(3H)-one] | < 100 nM |  | > 1 µM | > 1 µM | 
7 | C[C@H](Nc1ncnc(N)c1C#Cc1ncccn1)c1nc2cccc(F)c2c(=O)n1-c1ccccc1 [Compound 109a, 2-(1-((6-amino-5-(pyrimidin-2-ylethynyl)pyrimidin-4-yl)amino)ethyl)-5-fluoro-3-phenylquinazolin-4(3H)-one] | < 100 nM |  | > 1 µM | > 1 µM | 
8 | CCc1ccnc(C#Cc2c(N)ncnc2N[C@@H](C)c2nc3cccc(Cl)c3c(=O)n2-c2ccccc2)c1 [Compound 150a, (S)-2-(1-((6-amino-5-((4-ethylpyridin-2-yl)ethynyl)pyrimidin-4-yl)amino)ethyl)-5-chloro-3-phenylquinazolin-4(3H)-one] | < 100 nM |  | > 1 µM |  | < 0.1 µM
9 | Cc1cccc2nc([C@H](C)Nc3ncnc(N)c3C#Cc3cnccn3)n(-c3cccnc3)c(=O)c12 [Compound 119a, (S)-2-(1-((6-amino-5-(pyrazin-2-ylethynyl)pyrimidin-4-yl)amino)ethyl)-5-methyl-3-(pyridin-3-yl)quinazolin-4(3H)-one] | < 100 nM |  | > 1 µM | > 1 µM | 
10 | Cc1ccc(F)c2nc([C@H](C)Nc3ncnc(N)c3C#Cc3cnccn3)n(-c3cccc(C#N)c3)c(=O)c12 [Compound 73a, (S)-3-(2-(1-((6-amino-5-(pyrazin-2-ylethynyl)pyrimidin-4-yl)amino)ethyl)-8-fluoro-5-methyl-4-oxoquinazolin-3(4H)-yl)benzonitrile] | < 100 nM |  | > 1 µM | > 1 µM | 
11 | C[C@H](Nc1ncnc(N)c1C#Cc1cnccn1)c1nc2ccc(F)cc2c(=O)n1-c1ccccc1 [Compound 91a, (S)-2-(1-((6-amino-5-(pyrazin-2-ylethynyl)pyrimidin-4-yl)amino)ethyl)-6-fluoro-3-phenylquinazolin-4(3H)-one] | < 100 nM |  | > 1 µM | > 1 µM | 
12 | C[C@H](Nc1ncnc(N)c1C#Cc1ccc(F)cn1)c1nc2c(F)cccc2c(=O)n1-c1ccccc1 [Compound 13a, (S)-2-(1-(6-amino-5-((5-fluoropyridin-2-yl)ethynyl)pyrimidin-4-ylamino)ethyl)-8-fluoro-3-phenylquinazolin-4(3H)-one] | < 100 nM |  | > 1 µM | > 1 µM | 
13 | C[C@H](Nc1ncnc(N)c1C#Cc1ccc(F)cn1)c1nc2c(Cl)ccc(Cl)c2c(=O)n1-c1ccccc1 [Compound 11a, (S)-2-(1-(6-amino-5-((5-fluoropyridin-2-yl)ethynyl)pyrimidin-4-ylamino)ethyl)-5,8-dichloro-3-phenylquinazolin-4(3H)-one] | < 100 nM |  | > 1 µM | > 1 µM | 
14 | C[C@H](Nc1ncnc(N)c1C#Cc1cnccn1)c1nc2cccc(F)c2c(=O)n1-c1cccnc1 [Compound 115a, (S)-2-(1-((6-amino-5-(pyrazin-2-ylethynyl)pyrimidin-4-yl)amino)ethyl)-5-fluoro-3-(pyridin-3-yl)quinazolin-4(3H)-one] | < 100 nM |  | > 1 µM | > 1 µM | 
15 | C[C@H](Nc1ncnc(N)c1C#Cc1cnccn1)c1nc2cccc(F)c2c(=O)n1-c1ccccc1 [Compound 86a, (S)-2-(1-((6-amino-5-(pyrazin-2-ylethynyl)pyrimidin-4-yl)amino)ethyl)-5-fluoro-3-phenylquinazolin-4(3H)-one] | < 100 nM |  | > 1 µM | > 1 µM | 
16 | C[C@H](Nc1ncnc(N)c1C#Cc1ccc(C(N)=O)cn1)c1nc2cccc(Cl)c2c(=O)n1-c1ccccc1 [Compound 135a, (S)-6-((4-amino-6-((1-(5-chloro-4-oxo-3-phenyl-3,4-dihydroquinazolin-2-yl)ethyl)amino)pyrimidin-5-yl)ethynyl)nicotinamide] | < 100 nM |  | > 1 µM |  | < 0.1 µM

Next, values leading:

Row | IC50 [1] | IC50 [2] | IC50 [3] | IC50 ([4]; bound given in uM) | IC50 ([4]; bound given in nM) | Structure (SMILES)
17 | < 100 nM | < 100 nM |  |  |  | Cc1ccc(F)c2nc([C@H](C)Nc3ncnc(N)c3C#Cc3cnccn3)n(-c3ccccc3)c(=O)c12 [Compound 75a, (S)-2-(1-((6-amino-5-(pyrazin-2-ylethynyl)pyrimidin-4-yl)amino)ethyl)-8-fluoro-5-methyl-3-phenylquinazolin-4(3H)-one]
18 | < 100 nM |  | > 1 µM | > 1 µM |  | CC(=O)c1cccnc1C#Cc1c(N)ncnc1N[C@@H](C)c1nc2cccc(Cl)c2c(=O)n1-c1ccccc1 [Compound 152a, (S)-2-(1-((5-((3-acetylpyridin-2-yl)ethynyl)-6-aminopyrimidin-4-yl)amino)ethyl)-5-chloro-3-phenylquinazolin-4(3H)-one]
19 | < 100 nM |  | > 1 µM |  | < 0.1 µM | Cc1ccc(C#Cc2c(N)ncnc2N[C@@H](C)c2nc3cccc(Cl)c3c(=O)n2-c2ccccc2)nc1 [Compound 133a, (S)-2-(1-((6-amino-5-((5-methylpyridin-2-yl)ethynyl)pyrimidin-4-yl)amino)ethyl)-5-chloro-3-phenylquinazolin-4(3H)-one]
20 | < 100 nM |  | > 1 µM | > 1 µM |  | C[C@H](Nc1ncnc(N)c1C#Cc1cccc(CO)c1)c1nc2cccc(Cl)c2c(=O)n1-c1ccccc1 [Compound 162a, (S)-2-(1-((6-amino-5-((3-(hydroxymethyl)phenyl)ethynyl)pyrimidin-4-yl)amino)ethyl)-5-chloro-3-phenylquinazolin-4(3H)-one]
21 | < 100 nM |  | > 1 µM | > 1 µM |  | Nc1ncnc(N[C@H](CO)c2nc3cccc(Cl)c3c(=O)n2-c2ccccc2)c1C#Cc1ccc(F)cn1 [139b]
22 | < 100 nM | < 100 nM |  |  |  | C[C@H](Nc1ncnc(N)c1C#Cc1cccc(N)n1)c1nc2cccc(Cl)c2c(=O)n1-c1cc(F)cc(F)c1 [Compound 15a, (S)-2-(1-(6-amino-5-((6-aminopyridin-2-yl)ethynyl)pyrimidin-4-ylamino)ethyl)-5-chloro-3-(3,5-difluorophenyl)quinazolin-4(3H)-one]
23 | < 100 nM |  | > 1 µM | > 1 µM |  | Cc1nc(C#Cc2c(N)ncnc2N[C@@H](C)c2nc3cccc(Cl)c3c(=O)n2-c2ccccc2)ccc1F [Compound 140a, (S)-2-(1-((6-amino-5-((5-fluoro-6-methylpyridin-2-yl)ethynyl)pyrimidin-4-yl)amino)ethyl)-5-chloro-3-phenylquinazolin-4(3H)-one]
24 | < 100 nM |  | > 1 µM | > 1 µM |  | COc1cc(F)cc(C#Cc2c(N)ncnc2N[C@@H](C)c2nc3cccc(Cl)c3c(=O)n2N2CCOCC2)c1 [Compound 122a, (S)-2-(1-((6-amino-5-((3-fluoro-5-methoxyphenyl)ethynyl)pyrimidin-4-yl)amino)ethyl)-5-chloro-3-morpholinoquinazolin-4(3H)-one]
25 | < 100 nM |  | > 1 µM | > 1 µM |  | COC(=O)c1ccnc(C#Cc2c(N)ncnc2N[C@@H](C)c2nc3cccc(Cl)c3c(=O)n2-c2ccccc2)c1 [Compound 158a, (S)-methyl 2-((4-amino-6-((1-(5-chloro-4-oxo-3-phenyl-3,4-dihydroquinazolin-2-yl)ethyl)amino)pyrimidin-5-yl)ethynyl)isonicotinate]

Reference: patent US9266878B2, “Phosphatidylinositol 3-kinase inhibitors” (Gilead Calistoga LLC, priority 2012, dated 2016)
